In publication PMC12695667 (Nature, 2025):
Several values for one entry are separate records, joined by “and”; a condition that tells them apart may be missing. Equal entries are not always repeated.

What was measured:
HaCat spheroids = assay: Penetration in 3D-cultured multilayer HaCat spheroids (with or without endocytosis/exocytosis inhibitors); assay type: cell-based, human; details: FITC-eq 1 μg ml^−1, 12 h
Protocol: Multilayer cell spheroids were prepared using the hanging-drop method. […] The cell suspensions (25 μl) were dropped onto the lids of the cell culture plate to form uniform droplets, and 20 ml PBS was added to the plate to keep the droplets moist. The cells were incubated for 72 h and formed dense spheroids, which were transferred to an agarose-coated (1% (w/v) in PBS) 96-well plate with one spheroid per well and incubated for another 72 h to mature. […] The spheroids were washed with PBS and imaged using CLSM by z-stack tomoscan at 20 μm intervals from the bottom to the middle of the spheroids. The integration of FITC fluorescence density and linescan analysis were performed using Image J.
The HaCat spheroids were imaged and analysed as described above.
Spheroids were pre-treated with the indicated inhibitors for 4 h, followed by incubation with
The images are representative of n = 3 independent
experiments. b, Line-scan analysis of FITC fluorescence along a randomly selected line (yellow
(1 picture or pasted object on this page, not shown here)

[1] = tested on: C57BL/6J mouse dorsal skin; assay type: in vivo, C57BL/6J mice
Excerpt: The dorsal skin of male C57BL/6J mice was exposed using depilatory cream and cleaned using PBS. A diffusing cell of 1.13 cm^2 was attached onto the dorsal skin. […] After timed topical administration, the mice were euthanized. The treated skin sites were washed and dissected. The entire skin samples were carefully washed three times with PBS, fixed with 4% paraformaldehyde (PFA) solution and sectioned into 10-μm-thick slices using a cryostat (UV800, Leica Microsystems). 4′,6-Diamidino-2′-phenylindole (DAPI) was used to stain and label the nuclei of skin tissues, and BODIPY was used to stain and localize subcutaneous fat deposits. […] The CLSM images were analysed using ImageJ.

[2] = tested on: STZ-induced type 1 diabetic mice; assay: Blood glucose levels in STZ-induced diabetic mice; assay type: in vivo, C57BL/6J mice; details: for Effect on BGLs, topical: topical 116 U kg^−1, 1.13 cm^2 dorsal skin
Protocol: Type 1 diabetic mice were established through intraperitoneal delivery of STZ (150 mg per kg in 10 mg ml^−1 disodium citrate buffer, pH 4.5) into healthy male C57BL/6J mice (aged 6–8 weeks, ~25 g). BGLs were monitored, and the mice with BGLs exceeding 300 mg dl^−1 were considered diabetic. Diabetic mice with fasting BGLs within the 300 to 600 mg dl^−1 range were selected for the experiments. BGLs were measured from tail-vein blood (around 3 μl) using a calibrated Sinocare glucose meter.
BGLs were measured at timed intervals. […] The diabetic mice were subjected to a fasting period of 12 h during the experimental procedures.

[3] = tested on: STZ-induced diabetic minipigs; assay: Blood glucose levels in STZ-induced diabetic minipigs (CGMS); assay type: in vivo, Guangxi Bama minipigs; details: cream, 29 U kg^−1
Protocol: Guangxi Bama minipigs (aged 6 months; weight, 35–40 kg) were infused with STZ in freshly prepared disodium citrate buffer (75 mg ml^−1, pH 4.5) at a 150 mg per kg dose within 10 min and then maintained for recovery. The glucose levels were monitored using CGMS[15] (Dexcom G4 Platinum Continuous Glucose Monitor System, Dexcom). A BGL that is constantly higher than 250 mg dl^−1 indicates the successful establishment of the insulin-deficient diabetic minipig model.
The cream was topically applied onto the minipig abdominal skin at an insulin-equivalent dose of 40 mg or 10 mg (n = 3 for each group). The area with the cream was wrapped with plastic film. The BGLs of minipigs were continuously monitored using the CGMS. The diabetic minipigs were subjected to a fasting period of 12 h during the experimental procedures.

[4] = tested on: STZ-induced diabetic mice; assay: Intraperitoneal glucose tolerance test (IPGTT) in diabetic mice; assay type: in vivo, C57BL/6J mice; parameters: Area under the IPGTT blood glucose curve: unit not given here; details: for Area under the IPGTT blood glucose curve: Fig. 3h, 0-120 min; for BGL after intraperitoneal glucose administration (IPGTT): diabetic mice, topical 116 U kg^−1, glucose 1.5 g per kg i.p., hyperglycaemic state maintained
Protocol: BGLs were monitored over time. The diabetic mice were subjected to a fasting period of 3 h during the experimental procedures.

[5] = molecular target: insulin receptor extracellular domains, His-tagged; assay: SPR; Biacore X100, CM5 chip; anti-His antibody immobilised, His-tag-ECD-IR captured on it; insulin (9.75-156 nM) or OP-I (4.06-65.0 nM) injected in HEPES running buffer pH 7.4, single-cycle kinetics, 180 s binding and 300 s dissociation, flow 30 ul/min
[6] = tested on: phosphorylated AKT-Thr308; assay: Western blotting for insulin signalling, pAKT/AKT in skeletal muscle; assay type: in vivo, mouse; details: STZ-diabetic mice, 1 h after s.c. 5 U/kg, individual mice, n = 3
Protocol: (§1) The mice were euthanized, and their skeletal muscle tissues were collected at 1 h after subcutaneous injection or 4 h after topical administration. Muscle samples were weighed and lysed in radioimmunoprecipitation buffer (Sigma-Aldrich) containing protease and phosphatase inhibitors (Thermo Fisher Scientific) and incubated on ice for 30 min. The lysates were centrifuged at 20,000g for 20 min at 4 °C and quantified using the BCA protein assay. […] The membranes were blocked in Tris-buffered saline with 0.5% Tween-20 (TBST) and 5% BSA for 1 h, followed by overnight incubation at 4 °C with primary antibodies against phosphorylated IRβ/IGF1Rβ (1:1,000), phosphorylated AKT-Thr308 (1:1,000) or GAPDH (1:5,000). After washing three times with TBST, the membranes were incubated with horseradish-peroxidase-conjugated secondary antibodies (HRP-labelled goat anti-rabbit IgG (H+L) or HRP-labelled Goat Anti-Mouse IgG (H+L)) at a dilution of 1:1,000 at room temperature for 1 h. Signal detection was performed using Immobilon Forte chemiluminescence substrate on the ChemiScope 3600 Mini Imaging System (Clinx Science Instruments). […]
(§2) control. The blots are representative of n = 3 independent experiments . b, Quantification of pIR and pAKT levels. […]

[7] = tested on: phosphorylated IRβ/IGF1Rβ; assay: Western blotting for insulin signalling, pIR/IR in skeletal muscle; assay type: in vivo, mouse; details: STZ-diabetic mice, 1 h after s.c. 5 U/kg, western blot, individual mice, n = 3
Protocol: as §1, §2

Compound: insulin^FITC: FITC-labelled insulin
- Fluorescence of HaCat spheroids (CLSM) (HaCat spheroids): only weak fluorescence

Compound: CCN1/C(=C/C=C/C=C/C2=[N+](CCCCCC(=O)O)c3ccc(S(=O)(=O)O)cc3C2(C)C)C(C)(C)c2cc(S(=O)(=O)[O-])ccc21 [free Cy5]
- Transdermal permeability of free label [1]: no detectable transdermal permeability

Compound: PEG–I: PEGylated insulin, PEG molecular mass of 5 kDa, used as a control
- Effect on BGLs, topical [2]: negligible effect on BGLs
- Effect of topical treatment on minipig BGLs [3]: almost no obvious changes in minipig BGLs
- Area under the IPGTT blood glucose curve ([4]; replicate 1): 63110
- Area under the IPGTT blood glucose curve ([4]; replicate 2): 52617
- Area under the IPGTT blood glucose curve ([4]; replicate 3): 56133
- Area under the IPGTT blood glucose curve ([4]; replicate 4): 51381
- Area under the IPGTT blood glucose curve ([4]; replicate 5): 44798
- BGL after intraperitoneal glucose administration (IPGTT) [4]: around 600 mg dl^−1

Compound: OP-conjugated insulin (insulin conjugated to poly[2-(N-oxide-N,N-dimethylamino)ethyl methacrylate])
- koff [5]: 0.0053 s⁻¹
- kon [5]: 204000 M⁻¹ s⁻¹

Compound: insulin: Human recombinant insulin (29 U mg^−1, I8830, Solarbio) [reference compound]
- BGL after rebound within 4 h ([2]; s.c. 5 U kg^−1): around 400 mg dl^−1
- BGL reached within 1 h ([2]; s.c. 5 U kg^−1, from around 400): ~100 mg/dL
- Effect on BGLs, topical [2]: negligible effect on BGLs
- pAKT/AKT [6]: 0.4051 and 0.6287 and 0.4302
- PIR/IR [7]: 0.1659 and 0.2361 and 0.221
- Effect of topical treatment on minipig BGLs [3]: almost no obvious changes in minipig BGLs
- Area under the IPGTT blood glucose curve ([4]; replicate 1): 55359
- Area under the IPGTT blood glucose curve ([4]; replicate 2): 62309
- Area under the IPGTT blood glucose curve ([4]; replicate 3): 59228
- Area under the IPGTT blood glucose curve ([4]; replicate 4): 59472
- Area under the IPGTT blood glucose curve ([4]; replicate 5): 58535
- BGL after intraperitoneal glucose administration (IPGTT) [4]: around 600 mg dl^−1

Compound: PEG–I^FITC: FITC-labelled PEG–I
- Fluorescence of HaCat spheroids (CLSM) (HaCat spheroids): only weak fluorescence
